Reference: patent US10407409B2, “6-(5-hydroxy-1H-pyrazol-1-yl)nicotinamide inhibitors of PHD” (Takeda Pharmaceutical Company Limited, priority 2013, dated 2019)

Columns and labels:
[1] = target: PHD2 enzyme (residues 181-417) (Homo sapiens (Human), UniProt Q9GZT9); assay: Inhibition of PHD enzyme (LC/MS peptide hydroxylation assay); type: biochemical; conditions: PHD2 (residues 181-417) 5 nM, 60 min pre-incubation; -log(IC50), IC50 molar
Summary of the method: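 Hydroxylated peptide quantified by LC/MS after 60 min turnover of 1 uM biotinylated peptide with 2 uM 2-oxoglutarate and 1 mM ascorbate, stopped by excess tight-binding inhibitor. Beforehand, 5 nM enzyme and compound were preincubated 60 min at RT, pH 7.3 HEPES/KCl/TCEP/FeCl2/BSA buffer. Values as pIC50 (−log molar IC50).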

[2] = tested on: HIF1a protein in H9c2 rat cardiomyocytes; assay: Cell-based HIF-alpha stabilization assay (inhibition of PHD in cells); conditions: Rattus norvegicus, H9c2, 24 h, 24 hrs compound incubation, HIF1a protein by ELISA, read-out: Inhibition of PHD in cells (pEC50) (converted)
Summary of the method: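 HIF1a stabilization was measured by ELISA on lysates of H9c2 rat cardiomyocytes after 24 h exposure to 11 serial compound concentrations, expressed relative to the desferrioxamine maximum. Curve fits gave EC50. EC50pos denotes the concentration producing half the desferrioxamine maximal response.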

Sequence of PHD2 enzyme (residues 181-417) (Q9GZT9 181-417): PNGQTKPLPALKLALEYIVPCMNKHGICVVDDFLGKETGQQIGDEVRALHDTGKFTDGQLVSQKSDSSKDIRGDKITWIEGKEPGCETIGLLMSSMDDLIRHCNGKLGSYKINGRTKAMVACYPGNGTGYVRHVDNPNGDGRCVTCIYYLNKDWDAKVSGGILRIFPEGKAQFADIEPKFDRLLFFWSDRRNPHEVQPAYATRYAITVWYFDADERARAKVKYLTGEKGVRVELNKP

## Cc1cc(C#N)ccc1-c1cnn(-c2ccc(C(=O)NCCCn3cccn3)cn2)c1O [Example 141]
[1]
  PHD Inhibition (pIC50): 8.3
[2]
  EC50: 0.407 µM

## Cc1cc(C#N)ccc1-c1cnn(-c2ccc(C(=O)NCC3CCCCO3)cn2)c1O (stereo not shown) [Example 142, 6-(4-(4-cyano-2-methylphenyl)-5-hydroxy-1H-pyrazol-1-yl)-N-((tetrahydro-2H-pyran-2-yl)methyl)nicotinamide]
[1]
  PHD Inhibition (pIC50): 8.3
[2]
  EC50: 0.0851 µM

## COCC1(CNC(=O)c2ccc(-n3ncc(-c4ccc(C#N)cc4C)c3O)nc2)CCCC1 [Example 143, 6-(4-(4-cyano-2-methylphenyl)-5-hydroxy-1H-pyrazol-1-yl)-N-((1-(methoxymethyl)cyclopentyl)methyl)nicotinamide]
[1]
  PHD Inhibition (pIC50): 7.9
[2]
  EC50: 0.891 µM

## C[C@H]1CC[C@H](NC(=O)c2ccc(-n3ncc(-c4ccc(C#N)cc4)c3O)nc2)CC1 [Example 144, 6-(4-(4-cyanophenyl)-5-hydroxy-1H-pyrazol-1-yl)-N-((1r,4r)-4-methylcyclohexyl)nicotinamide]
[1]
  PHD Inhibition (pIC50): 8.1
[2]
  EC50: 1.7 µM

## COC(C)CCNC(=O)c1ccc(-n2ncc(-c3ccc(C#N)cc3)c2O)nc1 (stereo not shown) [Example 145, 6-(4-(4-cyanophenyl)-5-hydroxy-1H-pyrazol-1-yl)-N-(3-methoxybutyl)nicotinamide]
[1]
  PHD Inhibition (pIC50): 8.3
[2]
  EC50: 0.501 µM

## COCC(C)CNC(=O)c1ccc(-n2ncc(-c3ccc(C#N)cc3)c2O)nc1 (stereo not shown) [Example 146, 6-(4-(4-cyanophenyl)-5-hydroxy-1H-pyrazol-1-yl)-N-(3-methoxy-2-methylpropyl)nicotinamide]
[1]
  PHD Inhibition (pIC50): 8.3
[2]
  EC50: 0.692 µM

## COCC1(CNC(=O)c2ccc(-n3ncc(-c4ccc(C#N)cc4)c3O)nc2)CCCC1 [Example 147, 6-(4-(4-cyanophenyl)-5-hydroxy-1H-pyrazol-1-yl)-N-((1-(methoxymethyl)cyclopentyl)methyl)nicotinamide]
[1]
  PHD Inhibition (pIC50): 7.9
[2]
  EC50: 3.24 µM

## COCCCNC(=O)c1ccc(-n2ncc(-c3ccc(C#N)cc3)c2O)nc1 [Example 148, 6-(4-(4-cyanophenyl)-5-hydroxy-1H-pyrazol-1-yl)-N-(3-methoxypropyl)nicotinamide]
[1]
  PHD Inhibition (pIC50): 7.57
[2]
  EC50: 0.631 µM

## COCC1(NC(=O)c2ccc(-n3ncc(-c4ccc(C#N)cc4)c3O)nc2)CCCC1 [Example 149, 6-(4-(4-cyanophenyl)-5-hydroxy-1H-pyrazol-1-yl)-N-(1-(methoxymethyl)cyclopentyl)nicotinamide]
[1]
  PHD Inhibition (pIC50): 7.28
[2]
  EC50: 0.776 µM

## CNC(=O)c1ccc(-n2ncc(-c3ccc(C#N)cc3)c2O)nc1 [Example 150, 6-(4-(4-cyanophenyl)-5-hydroxy-1H-pyrazol-1-yl)-N-methylnicotinamide]
[1]
  PHD Inhibition (pIC50): 7.58
[2]
  EC50: 2.51 µM

## N#Cc1ccc(-c2cnn(-c3ccc(C(=O)NC4CCCC4)cn3)c2O)cc1 [Example 151, 6-(4-(4-cyanophenyl)-5-hydroxy-1H-pyrazol-1-yl)-N-cyclopentylnicotinamide]
[1]
  PHD Inhibition (pIC50): 7.12
[2]
  EC50: 3.63 µM

## COCCNC(=O)c1ccc(-n2ncc(-c3ccc(C#N)cc3)c2O)nc1 [Example 152, 6-(4-(4-cyanophenyl)-5-hydroxy-1H-pyrazol-1-yl)-N-(2-methoxyethyl)nicotinamide]
[1]
  PHD Inhibition (pIC50): 7.6
[2]
  EC50: 2.04 µM

## N#Cc1ccc(-c2cnn(-c3ccc(C(=O)NCC4CCCO4)cn3)c2O)cc1 (stereo not shown) [Example 153, 6-(4-(4-cyanophenyl)-5-hydroxy-1H-pyrazol-1-yl)-N-((tetrahydrofuran-2-yl)methyl)nicotinamide]
[1]
  PHD Inhibition (pIC50): 7.57
[2]
  EC50: 1.38 µM

## N#Cc1ccc(-c2cnn(-c3ccc(C(=O)N[C@@H]4CCOC4)cn3)c2O)cc1 [Example 154, (R)-6-(4-(4-cyanophenyl)-5-hydroxy-1H-pyrazol-1-yl)-N-(tetrahydrofuran-3-yl)nicotinamide]
[1]
  PHD Inhibition (pIC50): 7.68
[2]
  EC50: 1.48 µM

## N#Cc1ccc(-c2cnn(-c3ccc(C(=O)NC4CCCOC4)cn3)c2O)cc1 (stereo not shown) [Example 155, 6-(4-(4-cyanophenyl)-5-hydroxy-1H-pyrazol-1-yl)-N-(tetrahydro-2H-pyran-3-yl)nicotinamide]
[1]
  PHD Inhibition (pIC50): 7.62
[2]
  EC50: 1.55 µM

## COCC(NC(=O)c1ccc(-n2ncc(-c3ccc(C#N)cc3)c2O)nc1)C(C)C (stereo not shown) [Example 156, 6-(4-(4-cyanophenyl)-5-hydroxy-1H-pyrazol-1-yl)-N-(1-methoxy-3-methylbutan-2-yl)nicotinamide]
[1]
  PHD Inhibition (pIC50): 7.47
[2]
  EC50: 0.891 µM

## N#Cc1cnn(-c2cnn(-c3ccc(C(=O)NCc4ccccc4)cn3)c2O)c1 [Example 157, N-benzyl-6-(4-cyano-5′-hydroxy-1′H-[1,4′-bipyrazol]-1′-yl)nicotinamide]
[1]
  PHD Inhibition (pIC50): 6.97
[2]
  EC50: 1.7 µM

## N#Cc1cnn(-c2cnn(-c3ccc(C(=O)NCC4CCOCC4)cn3)c2O)c1 [Example 158, 6-(4-cyano-5′-hydroxy-1′H-[1,4′-bipyrazol]-1′-yl)-N-((tetrahydro-2H-pyran-4-yl)methyl)nicotinamide]
[1]
  PHD Inhibition (pIC50): 6.71
[2]
  EC50: 9.55 µM

## CC(C)NC(=O)c1ccc(-n2ncc(-c3ccc(C#N)cc3)c2O)nc1 [Example 159, 6-(4-(4-cyanophenyl)-5-hydroxy-1H-pyrazol-1-yl)-N-isopropylnicotinamide]
[1]
  PHD Inhibition (pIC50): 7.15
[2]
  EC50: 0.912 µM

## CC(C)CNC(=O)c1ccc(-n2ncc(-c3ccc(C#N)cc3)c2O)nc1 [Example 160, 6-(4-(4-cyanophenyl)-5-hydroxy-1H-pyrazol-1-yl)-N-isobutylnicotinamide]
[1]
  PHD Inhibition (pIC50): 6.9
[2]
  EC50: 0.759 µM

## N#Cc1ccc(-c2cnn(-c3ccc(C(=O)NC4CC4)cn3)c2O)cc1 [Example 161, 6-(4-(4-cyanophenyl)-5-hydroxy-1H-pyrazol-1-yl)-N-cyclopropylnicotinamide]
[1]
  PHD Inhibition (pIC50): 7.18
[2]
  EC50: 0.447 µM

## CCOCCCNC(=O)c1ccc(-n2ncc(-c3ccc(C#N)cc3)c2O)nc1 [Example 162, 6-(4-(4-cyanophenyl)-5-hydroxy-1H-pyrazol-1-yl)-N-(3-ethoxypropyl)nicotinamide]
[1]
  PHD Inhibition (pIC50): 7.23
[2]
  EC50: 1.15 µM

## CC(C)OCCCNC(=O)c1ccc(-n2ncc(-c3ccc(C#N)cc3)c2O)nc1 [Example 163, 6-(4-(4-cyanophenyl)-5-hydroxy-1H-pyrazol-1-yl)-N-(3-isopropoxypropyl)nicotinamide]
[1]
  PHD Inhibition (pIC50): 7.28
[2]
  EC50: 1.48 µM

## N#Cc1ccc(-c2cnn(-c3ccc(C(=O)N[C@H]4CC[C@@H](O)CC4)cn3)c2O)cc1 [Example 164, 6-(4-(4-cyanophenyl)-5-hydroxy-1H-pyrazol-1-yl)-N-((1 s,4s)-4-hydroxycyclohexyl)nicotinamide]
[1]
  PHD Inhibition (pIC50): 7.5
[2]
  EC50: 0.525 µM

## N#Cc1ccc(-c2cnn(-c3ccc(C(=O)N[C@H]4CC[C@H](O)CC4)cn3)c2O)cc1 [Example 165, 6-(4-(4-cyanophenyl)-5-hydroxy-1H-pyrazol-1-yl)-N-((1r,4r)-4-hydroxycyclohexyl)nicotinamide]
[1]
  PHD Inhibition (pIC50): 7.68
[2]
  EC50: 0.251 µM

## COc1cc(-c2cnn(-c3ccc(C(=O)N[C@H]4CC[C@@H](O)CC4)cn3)c2O)ccn1 [Example 166, 6-(5-hydroxy-4-(2-methoxypyridin-4-yl)-1H-pyrazol-1-yl)-N-((1s,4s)-4-hydroxycyclohexyl)nicotinamide]
[1]
  PHD Inhibition (pIC50): 7.28
[2]
  EC50: 0.437 µM

## COc1cc(-c2cnn(-c3ccc(C(=O)N[C@H]4CC[C@H](O)CC4)cn3)c2O)ccn1 [Example 167, 6-(5-hydroxy-4-(2-methoxypyridin-4-yl)-1H-pyrazol-1-yl)-N-((1r,4r)-4-hydroxycyclohexyl)nicotinamide]
[1]
  PHD Inhibition (pIC50): 7.46
[2]
  EC50: 0.282 µM

## COCCC1(NC(=O)c2ccc(-n3ncc(-c4ccc(C#N)cc4OC)c3O)nc2)CC1 [Example 168, 6-(4-(4-cyano-2-methoxyphenyl)-5-hydroxy-1H-pyrazol-1-yl)-N-(1-(2-methoxyethyl)cyclopropyl)nicotinamide]
[1]
  PHD Inhibition (pIC50): 8.1
[2]
  EC50: 0.437 µM

## C[C@H]1C[C@@H]1NC(=O)c1ccc(-n2ncc(-c3ccc(C#N)cc3)c2O)nc1 [Example 169, 6-(4-(4-cyanophenyl)-5-hydroxy-1H-pyrazol-1-yl)-N-((1s,2s)-2-methylcyclopropyl)nicotinamide]
[1]
  PHD Inhibition (pIC50): 7.22
[2]
  EC50: 0.891 µM

## C[C@@H](NC(=O)c1ccc(-n2ncc(-c3ccc(C#N)cc3)c2O)nc1)C(F)(F)F [Example 170, (R)-6-(4-(4-cyanophenyl)-5-hydroxy-1H-pyrazol-1-yl)-N-(1,1,1-trifluoropropan-2-yl)nicotinamide]
[1]
  PHD Inhibition (pIC50): 7.29
[2]
  EC50: 2.75 µM

## C[C@H](NC(=O)c1ccc(-n2ncc(-c3ccc(C#N)cc3)c2O)nc1)C(F)(F)F [Example 171, (S)-6-(4-(4-cyanophenyl)-5-hydroxy-1H-pyrazol-1-yl)-N-(1,1,1-trifluoropropan-2-yl)nicotinamide]
[1]
  PHD Inhibition (pIC50): 7.18
[2]
  EC50: 1.45 µM

## C[C@@H](NC(=O)c1ccc(-n2ncc(-c3ccc(C#N)cc3)c2O)nc1)C1CCOCC1 [Example 172, (R)-6-(4-(4-cyanophenyl)-5-hydroxy-1H-pyrazol-1-yl)-N-(1-(tetrahydro-2H-pyran-4-yl)ethyl)nicotinamide]
[1]
  PHD Inhibition (pIC50): 7.33
[2]
  EC50: 1.26 µM
